Source: the NIST ThermoML archive (doi:10.1007/s10765-009-0584-4)
Several values for one entry are separate records, joined by “and”; a condition that tells them apart may be missing. Equal values may be shown once. ± gives the expanded uncertainty stated by the source.

Conditions: 101.33 kPa, Liquid; for electrical conductivity: Parallel Plate Conductive Cell; for kinematic viscosity: Capillary tube (Ostwald / Ubbelohde) method

With `CCCCCC[n+]1ccn(C)c1.O=S(=O)([N-]S(=O)(=O)C(F)(F)F)C(F)(F)F` the electrical conductivity (278.15 K) was 0.0783 S/m, the electrical conductivity (283.15 K) was 0.104 S/m and the electrical conductivity (288.15 K) was 0.136 S/m. For the same molecule, the electrical conductivity (293.15 K) was 0.173 S/m, the kinematic viscosity (298.15 K) was 5.06e-05 ± 5.1e-07 m2/s and the electrical conductivity (298.15 K) was 0.217 S/m and 0.218 S/m. It also gave a kinematic viscosity (303.15 K) of 4.04e-05 ± 4.3e-07 m2/s, an electrical conductivity (303.15 K) of 0.268 S/m and an electrical conductivity (308.15 K) of 0.326 S/m. For the same molecule, the electrical conductivity (313.15 K) was 0.391 S/m, the kinematic viscosity (313.16 K) was 2.7e-05 ± 2.9e-07 m2/s and the kinematic viscosity (323.15 K) was 1.9e-05 ± 2e-07 m2/s. The electrical conductivity (323.15 K) was 0.543 S/m, the kinematic viscosity (333.15 K) was 1.39e-05 ± 1.5e-07 m2/s and the electrical conductivity (333.15 K) was 0.726 S/m. For the same molecule, the kinematic viscosity (343.15 K) was 1.06e-05 ± 1.2e-07 m2/s.
